Values of other authors in patent publication US8772507B2, “Imidazole-benzamide anti-cancer agents” (Cytokinetics, Inc., priority 2004, dated 2014).
Read-outs that look alike come from different tables or passages of the source.

Tested on: A549 cells

GI50	GI50 (no unit printed at this place)	SMILES
0.004 µM		CC(=O)O[C@H]1C(=O)[C@@]2(C)[C@H]([C@H](OC(=O)c3ccccc3)[C@]3(O)C[C@H](OC(=O)[C@H](O)[C@@H](NC(=O)c4ccccc4)c4ccccc4)C(C)=C1C3(C)C)[C@]1(OC(C)=O)CO[C@@H]1C[C@@H]2O [paclitaxel]
0.063 µM		COc1cccc2c1C(=O)c1c(O)c3c(c(O)c1C2=O)C[C@@](O)(C(=O)CO)C[C@@H]3O[C@H]1C[C@H](N)[C@H](O)[C@H](C)O1 [doxorubicin]
1 µM	1 µM	O=c1[nH]cc(F)c(=O)[nH]1 [5-fluorouracil]
500 µM		NC(=O)NO [hydroxyurea]
